Reference: patent publication US20210255193A1, “LYSINE REACTIVE PROBES AND USES THEREOF” (The Scripps Research Institute, priority 2017, published 2021)
Each block holds one compound with its values, some of them ahead of it.

How the values were obtained:
[1] = target: T1, TARDBP TAR DNA-binding protein 43 (Homo sapiens, UniProt Q13148); assay: competitive isoTOP-ABPP; details: for R value (DMSO/fragment) for probe 1 labeling: Q13148_K114; for R value (DMSO/fragment) for probe 1 labeling / isoTOP-ABPP reactivity ratio at lysine Q13148_K114 / isoTOP-ABPP ratio (R) at liganded lysine Q13148_K114: 50 uM, in vitro; for R value (DMSO/fragment) for probe 1 labeling / isoTOP-ABPP reactivity ratio at lysine Q13148_K114: 231 sol; for isoTOP-ABPP ratio (R) at liganded lysine Q13148_K114: sol, 231
T1 construct: isoTOP-ABPP experiments performed in cell lysates (in vitro); endogenous in cells; host or cells: soluble proteome of human cancer cell lines (MDA-MB-231, Ramos, Jurkat)
T1 sequence (Q13148 whole entry, the tested form may be a part): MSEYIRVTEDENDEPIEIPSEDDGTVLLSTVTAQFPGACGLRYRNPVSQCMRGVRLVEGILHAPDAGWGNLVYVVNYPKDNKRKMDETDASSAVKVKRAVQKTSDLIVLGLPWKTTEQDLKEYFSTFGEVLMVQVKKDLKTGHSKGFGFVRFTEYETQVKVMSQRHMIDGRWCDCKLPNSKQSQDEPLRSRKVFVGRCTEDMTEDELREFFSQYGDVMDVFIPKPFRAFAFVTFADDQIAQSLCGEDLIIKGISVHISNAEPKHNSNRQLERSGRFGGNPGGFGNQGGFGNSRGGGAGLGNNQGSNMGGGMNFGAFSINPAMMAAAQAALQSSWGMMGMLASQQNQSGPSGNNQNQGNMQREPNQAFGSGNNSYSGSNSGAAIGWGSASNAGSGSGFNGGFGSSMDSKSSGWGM
Summary of the method: (§1)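 Fragments at 50 μM (activated esters) or 100 μM (guanidinylating agents) were incubated with 0.5 ml lysate before probe labeling. After 0.1 mM STP-alkyne for 1 h, samples were clicked to isotopically distinct TEV tags, and R taken as DMSO-over-compound MS1 peak-area ratio.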

[2] = target: T2, OAT Ornithine aminotransferase, mitochondrial (Homo sapiens, UniProt P04181); assay: competitive isoTOP-ABPP; type: binding; details: for isoTOP-ABPP reactivity ratio at lysine P04181_K66: 50 uM, 231 sol, in vitro
T2 construct: isoTOP-ABPP experiments performed in cell lysates (in vitro); endogenous in cells; host or cells: MDA-MB-231 soluble lysate
T2 sequence (P04181 26-439): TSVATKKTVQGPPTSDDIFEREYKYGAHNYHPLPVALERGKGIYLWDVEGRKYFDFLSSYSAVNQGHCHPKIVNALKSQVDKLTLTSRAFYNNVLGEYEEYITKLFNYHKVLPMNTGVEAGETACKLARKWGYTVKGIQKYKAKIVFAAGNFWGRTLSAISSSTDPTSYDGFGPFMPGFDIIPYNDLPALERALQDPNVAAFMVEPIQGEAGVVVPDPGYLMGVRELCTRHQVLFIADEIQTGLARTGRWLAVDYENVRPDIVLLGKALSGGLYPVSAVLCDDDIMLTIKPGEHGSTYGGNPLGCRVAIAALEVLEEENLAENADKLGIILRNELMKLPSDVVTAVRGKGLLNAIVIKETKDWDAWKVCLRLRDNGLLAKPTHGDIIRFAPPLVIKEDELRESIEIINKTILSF
Summary of the method: as §1

TTR = target: T3, TTR (Homo sapiens, UniProt P02766); assay: direct labeling of recombinantly expressed proteins by gel-based ABPP (WT vs lysine mutant); type: binding; details: TTR K35, KA mutant; 1 μM TTR in MDA-MB-231 lysate
T3 construct: made in house; host or cells: E. coli
Source text: Subcloning and mutagenesis. Unless noted below, genes were amplified from cDNA prepared from low passage HEK 293T cells using the Ribozol RNA extraction reagent (Amresco) and the iScript Reverse Transcription Supermix kit (Bio-Rad). For the following proteins cDNA clones were used for amplification instead: PFKP (5180268, Dharmacon), HK1 (BC008730, transomic), SIN3A (BC137098, transomic), G6PD (BC000337, transomic) and TGIF1 (BC031268, transomic). Mouse CARM1 in pFLAG-CMV-6c was a kind gift from the Mowen lab (TSRI). NUDT2 was obtained as synthesized gene (IDT). DNA was amplified with custom forward and reverse primers using phusion polymerase (NEB, M0530S), digested with the indicated restriction enzyme and ligated into pFLAG-CMV-6c or pRK5 with the appropriate affinity tag. Lysine mutants were generated using QuikChange site-directed mutagenesis using Phusion® High-Fidelity DNA Polymerase and primers containing the desired mutations and their respective complements. The cloning of TTR and its K35A mutant has been described in Choi et al., “Chemoselective small molecules that covalently modify one lysine in a non-enzyme protein in plasma,” Nat. Chem. Biol. 6, 133-139 (2010). TTR was expressed in E. coli and purified as described. For gel-based experiments 1 μM TTR was added into 1 mg ml^−1 soluble MDA-MB-231 lysate.
Direct labeling of recombinantly expressed proteins by gel-based ABPP. 50 μL of soluble HEK 293T proteome (1 mg ml^−1) expressing the respective protein (WT or KR mutant) or transfected with an empty vector were treated with 10 μM of the indicated probe for 1 h at room temperature. The samples were analyzed as described in the previous section. For quantification of relative labeling of the different protein variants, the intensity of labeling was determined by quantifying the integrated optical intensity of the bands using ImageLab 5.2.1 software (BioRad).

- R value (DMSO/fragment) for probe 1 labeling [1]: 0.9
SMILES: O=C(Oc1c(F)c(F)c(F)c(F)c1F)c1cc(C(F)(F)F)cc(C(F)(F)F)c1 [fragment 21, Pentafluorophenyl 3,5-bis(trifluoromethyl)benzoate]

- R value (DMSO/fragment) for probe 1 labeling [1]: 0.8
SMILES: Cn1cc(CC(=O)Oc2c(F)c(F)c(F)c(F)c2F)c2ccccc21 [fragment 22, Pentafluorophenyl 2-(1-methyl-1H-indol-3-yl)acetate]

- isoTOP-ABPP reactivity ratio at lysine P04181_K66 [2]: 0.6
- isoTOP-ABPP reactivity ratio at lysine Q13148_K114 [1]: 1.0
SMILES: O=C(Oc1c(F)c(F)c(F)c(F)c1F)C1CCN(C(=O)OCc2ccccc2)CC1 [fragment 24, 1-Benzyl 4-(pentafluorophenyl) piperidine-1,4-dicarboxylate]

SMILES: O=C(CCc1cn(-c2ccccc2)nc1-c1ccccc1)Oc1ccc([N+](=O)[O-])cc1[N+](=O)[O-] [fragment 29, 2,4-Dinitrophenyl 3-(1,3-diphenyl-1H-pyrazol-4-yl)propanoate]
- isoTOP-ABPP reactivity ratio at lysine Q13148_K114 [1]: 1.1

SMILES: Cn1cc(CC(=O)Oc2ccc([N+](=O)[O-])cc2[N+](=O)[O-])c2ccccc21 [fragment 32, 2,4-Dinitrophenyl 2-(1-methyl-1H-indol-3-yl)acetate]
- isoTOP-ABPP reactivity ratio at lysine P04181_K66 [2]: 9.3

SMILES: COc1cc(CCC(=O)Oc2ccc([N+](=O)[O-])cc2[N+](=O)[O-])cc(OC)c1OC [fragment 33, 2,4-Dinitrophenyl 3-(3,4,5-trimethoxyphenyl)propanoate]
- isoTOP-ABPP reactivity ratio at lysine P04181_K66 [2]: 1.0

SMILES: O=C(CCc1coc2cc(F)ccc2c1=O)Oc1ccc([N+](=O)[O-])cc1[N+](=O)[O-] [fragment 36, 2,4-Dinitrophenyl 3-(7-fluoro-4-oxo-4H-chromen-3-yl)propanoate]
- isoTOP-ABPP ratio (R) at liganded lysine Q13148_K114 [1]: 1.2

SMILES: O=C(Oc1ccc([N+](=O)[O-])cc1[N+](=O)[O-])c1ccc(-c2ccccc2)cc1 [fragment 37, 2,4-Dinitrophenyl [1,1′-biphenyl]-4-carboxylate]
- isoTOP-ABPP ratio (R) at liganded lysine Q13148_K114 [1]: 1.3

SMILES: O=C(Oc1ccc([N+](=O)[O-])cc1[N+](=O)[O-])c1ccc(Oc2ccccc2)cc1 [fragment 39, 2,4-Dinitrophenyl 4-phenoxybenzoate]
- isoTOP-ABPP ratio (R) at liganded lysine Q13148_K114 [1]: 0.9

SMILES: N#Cc1ccc(C(=O)Oc2ccc([N+](=O)[O-])cc2[N+](=O)[O-])cc1 [fragment 44, 2,4-Dinitrophenyl 4-cyanobenzoate]
- isoTOP-ABPP ratio, lysine Q13148_K114 ([1]; 50 uM_231_sol_in vitro): 20.0

SMILES: O=C(CCc1ccc2c(c1)OCO2)Oc1ccc([N+](=O)[O-])cc1[N+](=O)[O-] [fragment 45, 2,4-Dinitrophenyl 3-(benzo[d][1,3]dioxol-5-yl)propanoate]
- isoTOP-ABPP ratio, lysine Q13148_K114 ([1]; 50 uM_231_sol_in vitro): 20.0

- isoTOP-ABPP ratio, lysine Q13148_K114 ([1]; 100 uM_231_sol_in vitro): 20.0
SMILES: COC(=O)NC(=NC(=O)OCC1c2ccccc2-c2ccccc21)n1cccn1 [fragment 49, N-Methoxycarbonyl-N′-9-fluorenylmethoxycarbonyl-pyrazole-1-carboxamidine]

- isoTOP-ABPP ratio, lysine P04181_K66 ([2]; 100 uM_231_sol_in vitro): 9.9
- isoTOP-ABPP ratio, lysine Q13148_K114 ([1]; 100 uM_231_sol_in vitro): 1.2
SMILES: CC(C)(C)OC(=O)N=C(NC(=O)OC(C)(C)C)n1cccn1 [fragment 50, reference compound]

SMILES: C#CCCC(=O)Oc1c(F)c(F)c(S(=O)(=O)[O-])c(F)c1F.[Na+] [probe 1, reference compound]
- labeling of WT vs mutant protein by probe (TTR): HD (the WT labeled more than the mutant (>4x difference quantified))

SMILES: C#CCCC(=O)Oc1c(F)c(F)c(F)c(F)c1F [probe 6, Pentafluorophenyl 4-pentynoate]
- labeling of WT vs mutant protein by probe (TTR): HD (the WT labeled more than the mutant (>4x difference quantified))

SMILES: C#Cc1ccc(C(=O)Oc2ccccc2[N+](=O)[O-])cc1 [probe 10, 2-Nitrophenyl 4-ethynylbenzoate]
- labeling of WT vs mutant protein by probe (TTR): HD (the WT labeled more than the mutant (>4x difference quantified))

SMILES: C#Cc1ccc(C(=O)Oc2c(F)c(F)cc(F)c2F)cc1 [probe 12, 2,3,5,6-Tetrafluorophenyl 4-ethynylbenzoate]
- labeling of WT vs mutant protein by probe (TTR): HD (the WT labeled more than the mutant (>4x difference quantified))

SMILES: C#Cc1ccc(C(=O)Oc2c(F)c(F)c(F)c(F)c2F)cc1 [probe 13, Pentafluorophenyl 4-ethynylbenzoate]
- labeling of WT vs mutant protein by probe (TTR): HD (the WT labeled more than the mutant (>4x difference quantified))

SMILES: Cc1cc(C)n2c1C=C1C=CC(CCC(=O)Oc3c(F)c(F)c(S(=O)(=O)[O-])c(F)c3F)=[N+]1[B-]2(F)F.[Na+] [probe 18, reference compound]
- labeling of WT vs mutant protein by probe (TTR): HD (the WT labeled more than the mutant (>4x difference quantified))
